Measurements reported in US5041567A, “Antibacterial monic acid derivatives” (Beecham Group plc, priority 1982, dated 1991).
In brackets after ≈: the same amount, converted by molar mass. Where two headings read alike, the source gives them in different places.

How the values were obtained:
Staph. aureus Oxford = assay: MIC against human bacteria in vitro; type: cell-based; conditions: Staph. aureus Oxford, 5% chocolated horse blood agar, 18 hours
M. suipneumoniae HK(2) = assay: MIC against mycoplasma in vitro; type: cell-based
M. hyorhinis ATCC 23234 = assay: MIC against mycoplasma in vitro; type: cell-based
K. aerogenes A = assay: MIC against human bacteria in vitro; type: cell-based; conditions: K. aerogenes A, 5% chocolated horse blood agar, 18 hours
Strep. spp. 64/848-C = assay: MIC against human bacteria in vitro; type: cell-based; conditions: Strep. spp. 64/848-C, 5% chocolated horse blood agar, 18 hours
[1] = test system: M. suipneumoniae ATCC 25095; assay: MIC against mycoplasma in vitro; type: cell-based; conditions: M. suipneumoniae ATCC 25095, 6 days, 37° C.
Strep. pneumoniae CN33 = assay: MIC against human bacteria in vitro; type: cell-based; conditions: Strep. pneumoniae CN33, 5% chocolated horse blood agar, 18 hours
M. suipneumoniae MS 16 = assay: MIC against mycoplasma in vitro; type: cell-based
[2] = test system: Staph. aureus B4 (pen. resistant); assay: MIC against veterinary bacteria in vitro
Procedure: (§1) The activity of the compounds of the Examples against various veterinarily important bacteria, was assayed in vitro using two-fold serial dilutions in Diagnostic Sensitivity Test Agar inoculated with 10^4 organisms.

E. coli E1 = assay: MIC against veterinary bacteria in vitro
Procedure: as §1

Bord. bronchiseptica B08 = assay: MIC against veterinary bacteria in vitro
Procedure: as §1

M. dispar NCTC 10125 = assay: MIC against mycoplasma in vitro; type: cell-based
Strep. faecalis I = assay: MIC against human bacteria in vitro; type: cell-based; conditions: Strep. faecalis I, 5% chocolated horse blood agar, 18 hours
M. suipneumoniae LABER = assay: MIC against mycoplasma in vitro; type: cell-based
Staph. aureus W2827 = assay: MIC against human bacteria in vitro; type: cell-based; conditions: Staph. aureus W2827, 5% chocolated horse blood agar, 18 hours
Staph. aureus Russell = assay: MIC against human bacteria in vitro; type: cell-based; conditions: Staph. aureus Russell, 5% chocolated horse blood agar, 18 hours
[3] = test system: Neisseria catarrhalis 1502; assay: MIC against human bacteria in vitro; type: cell-based; conditions: Neisseria catarrhalis 1502, 5% chocolated horse blood agar, 18 hours
[4] = test system: M. suipneumoniae J2206/183^b; assay: MIC against mycoplasma in vitro; type: cell-based
[5] = test system: M. suipneumoniae NCTC 10110; assay: MIC against mycoplasma in vitro; type: cell-based
S. typhimurium S18 = assay: MIC against veterinary bacteria in vitro
Procedure: as §1

[6] = test system: M. hyosynoviae ATCC 25591; assay: MIC against mycoplasma in vitro; type: cell-based; conditions: M. hyosynoviae ATCC 25591, 6 days, 37° C.
[7] = test system: Strep. pyogenes R80/421-A; assay: MIC against human bacteria in vitro; type: cell-based; conditions: Strep. pyogenes R80/421-A, 5% chocolated horse blood agar, 18 hours
M. hyorhinis ATCC 25021 = assay: MIC against mycoplasma in vitro; type: cell-based; conditions: M. hyorhinis ATCC 25021, 6 days, 37° C.
Bacillus subtilis 6633 = assay: MIC against human bacteria in vitro; type: cell-based; conditions: Bacillus subtilis 6633, 5% chocolated horse blood agar, 18 hours
[8] = test system: Pasteurella multocida 1633; assay: MIC against human bacteria in vitro; type: cell-based; conditions: Pasteurella multocida 1633, 5% chocolated horse blood agar, 18 hours
P. mirabilis 889 = assay: MIC against human bacteria in vitro; type: cell-based; conditions: P. mirabilis 889, 5% chocolated horse blood agar, 18 hours
Strep. uberis SPU1 = assay: MIC against veterinary bacteria in vitro
Procedure: as §1

E. coli ESS = assay: MIC against human bacteria in vitro; type: cell-based; conditions: E. coli ESS, 5% chocolated horse blood agar, 18 hours
Past. multocida PA2 = assay: MIC against veterinary bacteria in vitro
Procedure: as §1

[9] = test system: Staph. aureus 152 (pen. sens); assay: MIC against veterinary bacteria in vitro
Procedure: as §1

M. pneumoniae ATCC 15492 = assay: MIC against mycoplasma in vitro; type: cell-based
M. suipneumoniae JF 435 = assay: MIC against mycoplasma in vitro; type: cell-based; conditions: M. suipneumoniae JF 435, 6 days, 37° C.
M. suipneumoniae TAM 6N = assay: MIC against mycoplasma in vitro; type: cell-based
[10] = test system: Strep. suis (group D) SPS11; assay: MIC against veterinary bacteria in vitro
Procedure: as §1

[11] = Staphylococcus aureus, read-out: MIC
[12] = Mesomycoplasma hyopneumoniae, 144 h

C/C(=C\c1ncc(-c2ccc(Br)cc2)o1)C[C@@H]1OC[C@H](C[C@@H]2O[C@H]2[C@@H](C)[C@H](C)O)[C@@H](O)[C@H]1O [Example 18, 5-p-Bromophenyl-2-(1-normon-2-yl) oxazole A]
MIC (Staph. aureus Oxford; [11]): 2 µg/mL (≈ 3.83 µM) | MIC (M. suipneumoniae HK(2); [12]): 1 µg/mL (≈ 1.91 µM) | MIC (M. hyorhinis ATCC 23234; Mesomycoplasma hyorhinis, ATCC23234, 144 h): 0.25 µg/mL (≈ 0.479 µM) | MIC (K. aerogenes A; Klebsiella aerogenes, read-out: MIC): > 128 µg/mL | MIC (Strep. spp. 64/848-C; read-out: MIC): 4 µg/mL (≈ 7.66 µM) | MIC ([1]; Mesomycoplasma hyopneumoniae, ATCC25095, 144 h, read-out: MIC): 0.5 µg/mL (≈ 0.957 µM) | MIC (Strep. pneumoniae CN33; Streptococcus pneumoniae, read-out: MIC): 4 µg/mL (≈ 7.66 µM) | MIC (M. suipneumoniae MS 16; Mesomycoplasma hyopneumoniae, MS16, 144 h): 0.25 µg/mL (≈ 0.479 µM) | MIC ([2]; Staphylococcus aureus, 18 h): 0.156 µg/mL (≈ 0.299 µM) | MIC (E. coli E1; Escherichia coli, E1, 18 h): > 80 µg/mL | MIC (Bord. bronchiseptica B08; Bordetella bronchiseptica, B08, 18 h): 40 µg/mL (≈ 76.6 µM) | MIC (M. dispar NCTC 10125; 144 h): 0.25 µg/mL (≈ 0.479 µM) | MIC (Strep. faecalis I; Enterococcus faecalis, read-out: MIC): > 128 µg/mL | MIC (M. suipneumoniae LABER; [12]): 0.25 µg/mL (≈ 0.479 µM) | MIC (Staph. aureus W2827; [11]): 8 µg/mL (≈ 15.3 µM) | MIC (Staph. aureus Russell; [11]): 8 µg/mL (≈ 15.3 µM) | MIC ([3]; read-out: MIC): 4 µg/mL (≈ 7.66 µM) | MIC [4, 12]: 1 µg/mL (≈ 1.91 µM) | MIC ([5]; Mesomycoplasma hyopneumoniae, NCTC10110, 144 h): 1 µg/mL (≈ 1.91 µM) | MIC (S. typhimurium S18; Salmonella enterica, TYPHIMURIUM, 18 h): > 80 µg/mL | MIC ([6]; 144 h, read-out: MIC): 0.5 µg/mL (≈ 0.957 µM) | MIC ([7]; Streptococcus pyogenes, read-out: MIC): 2 µg/mL (≈ 3.83 µM) | MIC (M. hyorhinis ATCC 25021; Mesomycoplasma hyorhinis, ATCC25021, 144 h, read-out: MIC): 0.5 µg/mL (≈ 0.957 µM) | MIC (Bacillus subtilis 6633; read-out: MIC): 1 µg/mL (≈ 1.91 µM) | MIC ([8]; read-out: MIC): 16 µg/mL (≈ 30.6 µM) | MIC (P. mirabilis 889; Proteus mirabilis, read-out: MIC): > 128 µg/mL | MIC (Strep. uberis SPU1; Streptococcus uberis, SPU1, 18 h): < 0.039 µg/mL | MIC (E. coli ESS; Escherichia coli, read-out: MIC): 8 µg/mL (≈ 15.3 µM) | MIC (Past. multocida PA2; Pasteurella multocida, PA2, 18 h): 1.25 µg/mL (≈ 2.39 µM) | MIC ([9]; Staphylococcus aureus, 18 h): 0.312 µg/mL (≈ 0.597 µM) | MIC (M. pneumoniae ATCC 15492; Mycoplasmoides pneumoniae, ATCC15492, 144 h): 1 µg/mL (≈ 1.91 µM) | MIC (M. suipneumoniae JF 435; Mesomycoplasma hyopneumoniae, JF435, 144 h, read-out: MIC): 0.5 µg/mL (≈ 0.957 µM) | MIC (M. suipneumoniae TAM 6N; Mesomycoplasma hyopneumoniae, TAM6N, 144 h): 1 µg/mL (≈ 1.91 µM) | MIC ([10]; Streptococcus suis, 18 h): 10 µg/mL (≈ 19.1 µM)

CC(=Cc1cc(C)no1)CC1OCC(CC2OC2C(C)C(C)O)C(O)C1O (centres unmarked) [Example 30, 3-Methyl-5-(1-normon-2-yl) isoxazole A]
MIC (Staph. aureus Oxford): 8.0 µg/mL (≈ 21 µM) | MIC (M. suipneumoniae HK(2); M. suipneumoniae HK(2), 6 days, 37° C.): 2.5 µg/mL (≈ 6.55 µM) | MIC (M. hyorhinis ATCC 23234; M. hyorhinis ATCC 23234, 6 days, 37° C.): 0.5 µg/mL (≈ 1.31 µM) | MIC (K. aerogenes A): > 128 µg/mL | MIC (Strep. spp. 64/848-C): > 128 µg/mL | MIC [1]: 2.5 µg/mL (≈ 6.55 µM) | MIC (Strep. pneumoniae CN33): 128 µg/mL (≈ 336 µM) | MIC (M. suipneumoniae MS 16; M. suipneumoniae MS 16, 6 days, 37° C.): 2.5 µg/mL (≈ 6.55 µM) | MIC ([2]; Staph. aureus B4 (pen. resistant), Diagnostic Sensitivity Test Agar, 18 hours): 1.25 µg/mL (≈ 3.28 µM) | MIC (E. coli E1; E. coli E1, Diagnostic Sensitivity Test Agar, 18 hours, 37° C.): > 80 µg/mL | MIC (Bord. bronchiseptica B08; Bord. bronchiseptica B08, Diagnostic Sensitivity Test Agar, 18 hours): > 80 µg/mL | MIC (M. dispar NCTC 10125; M. dispar NCTC 10125, 6 days, 37° C.): 0.25 µg/mL (≈ 0.655 µM) | MIC (Strep. faecalis I): > 128 µg/mL | MIC (M. suipneumoniae LABER; M. suipneumoniae LABER, 6 days, 37° C.): 2.5 µg/mL (≈ 6.55 µM) | MIC (Staph. aureus W2827): 16 µg/mL (≈ 41.9 µM) | MIC (Staph. aureus Russell): 16 µg/mL (≈ 41.9 µM) | MIC [3]: 8.0 µg/mL (≈ 21 µM) | MIC ([4]; M. suipneumoniae J2206/183^b, 6 days, 37° C.): 2.5 µg/mL (≈ 6.55 µM) | MIC ([5]; M. suipneumoniae NCTC 10110, 6 days, 37° C.): 2.5 µg/mL (≈ 6.55 µM) | MIC (S. typhimurium S18; S. typhimurium S18, Diagnostic Sensitivity Test Agar, 18 hours): > 80 µg/mL | MIC [6]: 1.0 µg/mL (≈ 2.62 µM) | MIC [7]: 32 µg/mL (≈ 83.9 µM) | MIC (M. hyorhinis ATCC 25021): 0.5 µg/mL (≈ 1.31 µM) | MIC (Bacillus subtilis 6633): 8.0 µg/mL (≈ 21 µM) | MIC [8]: 8.0 µg/mL (≈ 21 µM) | MIC (P. mirabilis 889): > 128 µg/mL | MIC (Strep. uberis SPU1; Strep. uberis SPU1, Diagnostic Sensitivity Test Agar, 18 hours): 10 µg/mL (≈ 26.2 µM) | MIC (E. coli ESS): 8.0 µg/mL (≈ 21 µM) | MIC (Past. multocida PA2; Past. multocida PA2, Diagnostic Sensitivity Test Agar, 18 hours): 0.312 µg/mL (≈ 0.818 µM) | MIC ([9]; Staph. aureus 152 (pen. sens), Diagnostic Sensitivity Test Agar, 18 hours): 2.5 µg/mL (≈ 6.55 µM) | MIC (M. pneumoniae ATCC 15492; M. pneumoniae ATCC 15492, 6 days, 37° C.): 10 µg/mL (≈ 26.2 µM) | MIC (M. suipneumoniae JF 435): 5.0 µg/mL (≈ 13.1 µM) | MIC (M. suipneumoniae TAM 6N; M. suipneumoniae TAM 6N, 6 days, 37° C.): 5.0 µg/mL (≈ 13.1 µM) | MIC ([10]; Strep. suis (group D) SPS11, Diagnostic Sensitivity Test Agar, 18 hours): > 80 µg/mL
